Patent USRE39420E1, “1,2-Diphenylpyrrole derivatives, their preparation and their therapeutic uses” (Sankyo Company, Limited, priority 1996, dated 2006)

What was measured:
[1] = test system: Carrageenan-induced Paw Edema in rats; assay: Carrageenan-induced paw edema test; format: in vivo, Wistar-Imamichi rats; details: Rattus norvegicus, oral, 3 hours after carrageenan, read-out: Inhibition Rate (%)
Method: The same test compounds were subjected to the test as those in the Randall-Selitto test of Experiment 3. Wistar-Imamichi rats (males, 6 week old, body weights: 110-120 g) were used in this test.
The method of Winter, et al. [Proc. Soc. Exp. Biol. Med. 111, 544-547, (1962)] was slightly modified to perform the test [Sankyo Annual Research Report 39, 77-111, (1989)]. The rats were fasted for 16 hours prior to use. Inflammatory edema was induced by the subcutaneous injection of 0.05 ml of a 1% carrageenan (Viscarin 402) solution into the right hind paw of the animal. The test compounds were administered orally 30 minutes before injection of carrageenan. The volume of the right hind foot was measured with a Plethysmometer (Trade mark) (Ugo-Basile Co.) just before administration of the test compound and 3 hours after injection of carrageenan to determine the edema intensity [(right foot volume after 3 hours/right foot volume before injection)-1].

[2] = target: T1, Human Recombinant Cyclooxygenase-2 (Homo sapiens, UniProt P35354); assay: Inhibitory activity on human recombinant cyclooxygenase-2 microsomes from COS cells (PGE2 ELISA); format: biochemical; details: for IC50: human recombinant COX-2 microsomes, PGE2 formation, read-out: Inhibitory Effect on COX-2 [IC50 (μM)]; for Selectivity (COX-1/COX-2): ratio of IC50 COX-1/COX-2
T1 construct: made in house; host or cells: COS cells (transient expression; microsomes prepared after 66 hours)
T1 sequence (P35354 18-604): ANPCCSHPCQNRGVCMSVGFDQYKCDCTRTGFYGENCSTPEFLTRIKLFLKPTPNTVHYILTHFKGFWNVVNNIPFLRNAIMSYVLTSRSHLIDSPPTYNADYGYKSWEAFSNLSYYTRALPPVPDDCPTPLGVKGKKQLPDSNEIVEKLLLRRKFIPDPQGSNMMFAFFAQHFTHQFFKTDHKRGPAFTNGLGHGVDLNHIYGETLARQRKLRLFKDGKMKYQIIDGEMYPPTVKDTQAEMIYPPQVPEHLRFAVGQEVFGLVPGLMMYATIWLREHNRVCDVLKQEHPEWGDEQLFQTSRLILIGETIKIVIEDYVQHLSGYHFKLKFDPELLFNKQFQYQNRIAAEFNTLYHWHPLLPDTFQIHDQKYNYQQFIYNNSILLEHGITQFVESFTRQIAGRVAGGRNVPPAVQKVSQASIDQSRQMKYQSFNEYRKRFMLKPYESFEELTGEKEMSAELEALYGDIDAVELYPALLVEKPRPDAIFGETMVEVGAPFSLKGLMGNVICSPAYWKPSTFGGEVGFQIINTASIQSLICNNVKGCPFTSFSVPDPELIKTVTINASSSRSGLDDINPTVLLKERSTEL
Method: In order to prepare cyclooxygenase-1 (COX-1) microsomes, ram seminal vesicles were homogenised by a blender. To prepare cyclooxygenase-2 (COX-2) microsomes, an expression vector which contains the human COX-2 gene was introduced into COS cells. The cells were homogenised by sonication after 66 hours cultivation. Microsomes were then prepared in accordance with conventional methods.
Enzyme activity was assayed as follows.
(§1) The assay mixture contained 10 μl of COX-1 or COX-2 microsomes (5 to 15 μg), 2 μl of sample dissolved in dimethyl sulfoxide, 50 μl of 200 mM Tris (pH 7.6), 10 μl of 20 mM reduced glutathione, 10 μl of 10 mM epinephrine, and 15.5 μl of distilled water. After preincubation at 37° C. for 15 minutes, 2.5 μl of 10 μM arachidonic acid (dissolved in ethanol) were then added to the mixture (final volume of 100 μl) and allowed to react at 37° C. for 30 minutes. The final dimethyl sulfoxide and ethanol concentrations were 2% and 2.5%, respectively. To the reaction mixture were then added 15 μl of ice-cooled 0.2M HCl to stop the reaction, and the mixture was cooled at 4° C. for 5 minutes. 15 μl of a 0.2M aqueous solution of sodium hydroxide were then added to the reaction mixture to neutralise the pH. The amount of PGE2, in the reaction mixture was measured using a commercially available ELISA kit (Cayman). IC50 was calculated from the regression line determined by the inhibition rates of PGE2 formation and the concentrations of the compound.

[3] = target: T2, Cyclooxygenase-1 from Ram Seminal Vesicle Microsomes (RSVM) (Ovis aries, UniProt P05979); assay: Inhibitory activity on cyclooxygenase-1 from ram seminal vesicle microsomes (PGE2 ELISA); format: biochemical; details: PGE2 formation, read-out: Inhibitory Effect on COX-1[IC50(μM)]
T2 construct: ram seminal vesicles were homogenised by a blender; from tissue; host or cells: ram seminal vesicles (microsomes)
T2 sequence (P05979 25-600): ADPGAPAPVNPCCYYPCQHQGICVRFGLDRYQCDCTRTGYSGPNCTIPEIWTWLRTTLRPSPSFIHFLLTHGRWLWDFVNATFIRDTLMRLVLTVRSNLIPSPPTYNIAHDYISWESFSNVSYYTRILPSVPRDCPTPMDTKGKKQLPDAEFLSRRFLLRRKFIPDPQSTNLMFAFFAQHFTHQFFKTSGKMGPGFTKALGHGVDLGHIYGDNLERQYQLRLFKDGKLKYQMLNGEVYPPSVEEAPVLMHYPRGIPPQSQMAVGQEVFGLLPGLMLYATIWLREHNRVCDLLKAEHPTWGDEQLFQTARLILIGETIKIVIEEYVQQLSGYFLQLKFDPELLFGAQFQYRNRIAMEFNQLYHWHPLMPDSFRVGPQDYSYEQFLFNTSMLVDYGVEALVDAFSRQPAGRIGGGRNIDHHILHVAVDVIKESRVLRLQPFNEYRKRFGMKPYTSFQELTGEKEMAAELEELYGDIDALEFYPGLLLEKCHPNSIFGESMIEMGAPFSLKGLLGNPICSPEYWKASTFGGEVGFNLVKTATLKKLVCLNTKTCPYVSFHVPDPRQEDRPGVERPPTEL
Method: as §1, with “In order to prepare cyclooxygenase-1 (COX-1) microsomes, ram seminal vesicles were homogenised by a blender. To prepare cyclooxygenase-2 (COX-2) microsomes, an expression vector which contains the human COX-2 gene was introduced into COS cells. The cells were homogenised by sonication after 66 hours cultivation. Microsomes were then prepared in accordance with conventional methods. Enzyme activity was assayed as follows. The assay” for “The assay”

[4] = test system: yeast-inflamed pain in rats; assay: Analgesic effect on yeast-inflamed pain in rats (Randall-Selitto method); format: in vivo, Wistar-Imamichi rats; details: Rattus norvegicus, oral, pain threshold 0.5, 1 and 2 hours after administration, read-out: Efficacy Rate (No. of animals in which drug was effective/No. of animals used in test) (converted)
Method: The compound was suspended in 0.5%tragacanth and administered orally at a volume of 5 ml/kg. The control group was administered with 0.5% tragacanth only as a vehicle.
Wistar-Imamichi rats (males, 5 week old, body weights: 80-100 g) were used in this test.
The test was conducted in accordance with the method of Winter and Flataker [J. Pharmacol. Exp. Ther. 150, 165-171, (1965)], which is a modification of the original method of Randall and Selitto [Arch. Int. Pharmacodyn. Ther. 111, 405-419, (1957)]. The rats were fasted for 16 hours prior to use. Inflammation was induced by subcutaneous injection of 0.1 ml of a suspension of 20% beer yeast (Sigma) into the right hind footpad of the animal. After 4.5 hours, increasing pressure was applied to the inflamed footpad at a constant speed using an Analgesy meter (Trade mark) (Ugo-Basile Co.).
First the average of pain threshold values at each time point (0.5, 1, and 2 hr) was calculated in a control group. If a pain threshold value exceeded 2 times the control average value at the same time point even once in the drug-treated groups, then the animal was considered to indicate efficacy. Efficacy rates of the drug were estimated by the evaluation method of Blake [J. Pharm. Pharm. 19, 367-373, (1967)].

gastric mucosa = assay: Irritative effect on gastric mucosa; format: in vivo, Wistar rats; details: oral; dose producing 50% incidence of gastric ulcers, 3.5 hours after dosing
Method: Experiments were performed according to the method described by Jahn and Adrian [Arzneim.-Forsch. 19, 36, (1969)]. Male Wistar rats weighing approximately 120 g were fasted for 16 hours before the experiment. The drugs were administered orally to rats as described in Experiment 3. Three and the half hours after dosing, the animals were killed under ether-anesthesia and the stomachs were placed into 1% of formalin. The stomach was opened by cutting along the greater curvature and the number and length of lesions were counted under a microscope (6.3×10). The ulcerogenicity in each animal was assessed according to Hitchens et. al. [Pharmacologist 9, 242, (1967)]. Incidence was determined as the rate of rats with 4 or more ulcers of more than 0.5 mm length, and UD50's (doses producing 50% incidence) were calculated from the incidence and the dose by probit (=probability unit) method.

SMILES	IC50 [2] [µM]	Selectivity (COX-1/COX-2) [2]	IC50 [3] [µM]	inhibition in vivo at 50 mg/kg [1] [%]	responders at 12.5 mg/kg [4] [%]	UD50 (gastric mucosa) [mg/kg]
COc1ccc(-n2cc(C)cc2-c2ccc(S(N)(=O)=O)cc2)cc1 [Example 62, 1-(4-Methoxyphenyl)-4-methyl-2-(4-sulfamoylphenyl)pyrrole]	0.0097	153	1.5	55	100	
Cc1cc(-c2ccc(S(N)(=O)=O)cc2)n(-c2ccc(F)cc2)c1 [Example 20, 1-(4-Fluorophenyl)-4-methyl-2-(4-sulfamoylphenyl) pyrrole]	0.023	3696	85			
Cc1cc(-c2ccc(S(N)(=O)=O)cc2)n(-c2ccc(F)cc2)c1Cl [Example 38, 5-Chloro-1-(4-fluorophenyl)-4-methyl-2-(4-sulfamoylphenyl)pyrrole]	0.023	>4348	> 100			
Cc1ccc(-n2cc(C)cc2-c2ccc(S(N)(=O)=O)cc2)cc1 [Example 58, 4-Methyl-1-(4-methylphenyl)-2-(4-sulfamoylphenyl) pyrrole]	0.019	332	6.3			
Cc1cc(-c2ccc(S(C)(=O)=O)cc2)n(-c2ccc(C)c(C)c2)c1 [Example 56, 4-Methyl-1-(3,4-dimethylphenyl)-2-(4-methylsulfonylphenyl)pyrrole]	0.018	>5556	> 100			
COc1ccc(-c2cc(C)cn2-c2ccc(S(C)(=O)=O)cc2)cc1 [Example 80, 2-(4-Methoxyphenyl)-4-methyl-1-(4-methylsulfonylphenyl)pyrrole]	0.011	2273	25			>100
COc1ccc(-c2c(C)ccn2-c2ccc(S(N)(=O)=O)cc2)cc1 [Example 73, 2-(4-Methoxyphenyl)-3-methyl-1-(4-sulfamoylphenyl)pyrrole]	0.025	120	3	72		

Continued, in another order:

IC50 [2] [µM]	Selectivity (COX-1/COX-2) [2]	IC50 [3] [µM]	SMILES	inhibition in vivo at 50 mg/kg [1] [%]	responders at 12.5 mg/kg [4] [%]	UD50 (gastric mucosa) [mg/kg]
0.023	165	3.8	Cc1cc(-c2ccc(S(N)(=O)=O)cc2)n(-c2ccc3c(c2)OCO3)c1 [Example 109]	77		
< 0.01	>600	6	Cc1cc(-c2ccc(S(N)(=O)=O)cc2)n(-c2ccc(F)c(Cl)c2)c1 [Example 108]	58		
0.01	370	3.7	Cc1cc(-c2ccc(S(N)(=O)=O)cc2)n(-c2ccc(Cl)c(Cl)c2)c1 [Example 103]	56		>100
0.015	867	13	Cc1cc(-c2ccc(Cl)cc2)n(-c2ccc(S(N)(=O)=O)cc2)c1 [Example 65, 2-(4-Chlorophenyl)-4-methyl-1-(4-sulfamoylphenyl) pyrrole]		100	>100
